For the assay, the system named is miR-124. Briefly: Up-regulation of miR-124 in CD3/CD28 antibody-activated T cells (SYBR green quantitative PCR). The format is cell-based. The note with it: T-cell, 72 h; activated human T cells, 1 μM compound, 3 days, relative to DMSO, U6 internal reference. The procedure: The effect of the compound on miR-124 expression levels was detected in CD3/CD28 antibody-activated T cells. After the activated T cells were treated with the compound, the total cellular RNA was extracted, the cDNA obtained from reverse transcription was used as a template, and quantification was performed by an SYBR green fluorescence quantitative PCR method using a specific miR-124 primer.
Isolation of T cells: Purchased human peripheral blood mononuclear cells (PBMCs) were counted, centrifuged, and washed once with a separation buffer (PBS, pH 7.4, containing 0.5% BSA and 2 mM EDTA), and the supernatant was discarded. The components were added in an amount of 40 μL of a buffer and 10 μL of pan T Cell Biotin-Antibody Cocktail per 1×10^7 cells, and the pellet was resuspended. The resulting suspension was mixed and incubated in a refrigerator at 4° C. for 5 min. After the incubation was completed, the components were added in an amount of 30 μL of a buffer and 20 μL of Pan T Cell MicroBeads Cocktail per 1×10^7 cells, and the resulting suspension was mixed and incubated in a refrigerator at 4° C. for 10 min. The separation column (LS column) was rinsed with 3 mL of a cell separation buffer in advance, loaded with the above cell suspension, and then repeatedly washed 3 times with 1 mL of the cell separation buffer. The effluent cell fluid was collected in a 15 mL centrifuge tube, thus giving the enriched T cells. The cells were counted and added at a density of 1×10^6 cells/mL to an RPMI1640 medium (complete medium) containing 10% FBS and 40) U/mL IL-2, and the resulting mixture was kept on ice for later use.
Activation of T cells: The corresponding Dynabead Human T-Activator CD3/CD28 for T Cell Expansion and Activation were added to a 1.5 mL centrifuge tube in an amount of 25 μL of the activated magnetic beads per 1×10^6 cells, which should be shaken on a shaker for about 30 s before aspiration. In the centrifuge tube, at a volume ratio of greater than 1:1, the activated magnetic beads were washed 3 times with a medium, and all the washing liquid was removed after the last washing. A complete medium with a volume equal to the starting volume was added to resuspend the activated magnetic beads. The washed activated magnetic beads were added to the cell resuspension, and the resulting mixture was well mixed. The cells were added to a six-well plate at 3 mL/well and incubated in a cell incubator at 37° C. with 5% CO2 for 2 days.
Compound treatment: A 20 mM compound stock solution was diluted to 200 μM with DMSO, and then diluted 4-fold to 50 μM (50)×) with a complete medium. The resulting mixture was well mixed for later use. 4-fold diluted DMSO (25% DMSO) was added to negative control wells. T cells were activated for two days and pipetted uniformly. The 1.5 mL centrifuge tube was mounted on a magnetic rack, and the activated magnetic beads were removed. The cell suspension was collected, and the cells were counted and then centrifuged at 300×g for 10 min to discard the supernatant. The cells were then resuspended to 1.02×10^6 cells/mL, and 980 μL of the cell suspension and 20 μL of the 50× compound were added to each 24-well plate, with the final concentration of the compound being 1 μM. The cells were placed in a cell incubator at 37° C. with 5% CO2 for another 3 days.
RNA extraction: T cells were collected by centrifugation at 1500 rpm for 3 min, washed once with PBS, and centrifuged again to discard the supernatant. The total cellular RNA was extracted using a microRNA extraction kit according to the package insert. 700 μL of a Trizol cell lysis buffer was added to the cell pellet, and the resulting mixture was pipetted uniformly and left at room temperature for 5 min. 140 μL of chloroform was added, and the resulting mixture was well mixed with shaking and left to stand at room temperature for 3 min. The chloroform-cell lysis buffer mixture was centrifuged at 12000×g and 4° C. for 15 min. […]

Our source for the fold induction values is patent US20240327388A1, “QUINOLINAMINE COMPOUND, PREPARATION METHOD THEREFOR AND APPLICATION THEREOF IN PHARMACEUTICALS” (JIANGSU HENGRUI PHARMACEUTICALS CO., LTD., priority 2021, published 2024).

In general, fold induction refers to the ratio of treated to control signal. The low end stands for a weak induction, the high end for a strong induction.

The structures appear in SMILES notation.

Turning to `Clc1cccc2ccc(Nc3ccc4c(c3)CCO4)nc12` [Compound 3, 8-Chloro-N-(2,3-dihydrobenzofuran-5-yl)quinolin-2-amine], the fold induction at 1 µM amounted to 5.2. `Clc1cccc2ccc(Nc3ccc4c(c3)CCC4)nc12` [Compound 4, 8-Chloro-N-(2,3-dihydro-1H-inden-5-yl)quinolin-2-amine] showed a fold induction at 1 µM of 5.4. Turning to `CC(=O)N1CCc2cc(Nc3ccc4cccc(Cl)c4n3)ccc21` [Compound 5, 1-(5-((8-Chloroquinolin-2-yl)amino)indolin-1-yl)ethan-1-one], the fold induction at 1 µM was found to be 1.4. The value for `Clc1cccc2ccc(Nc3ccc4c(c3)OCCO4)nc12` [Compound 6, 8-Chloro-N-(2,3-dihydrobenzo[b][1,4]dioxin-6-yl)quinolin-2-amine] was 2.7; that for `Clc1cccc2ccc(Nc3ccc4c(c3)CCCC4)nc12` [Compound 7, 8-Chloro-N-(5,6,7,8-tetrahydronaphthalen-2-yl)quinolin-2-amine] was 5.2; that for `FC1(F)Oc2ccc(Nc3ccc4cccc(Cl)c4n3)cc2OC1(F)F` [Compound 8, 8-Chloro-N-(2,2,3,3-tetrafluoro-2,3-dihydrobenzo[b][1,4]dioxin-6-yl)quinolin-2-amine] was 5.4.

As for `Clc1cccc2ccc(Nc3cnc4c(c3)OCO4)nc12` [Compound 9, N-(8-Chloroquinolin-2-yl)-[1,3]dioxolo[4,5-b]pyridin-6-amine], the fold induction at 1 µM came out at 2.4. In turn, `Clc1cccc2ccc(Nc3ccc4c(c3)OCO4)nc12` [Compound 10, N-(Benzo[d][1,3]dioxol-5-yl)-8-chloroquinolin-2-amine] came in with a fold induction at 1 µM of 2.1. For the compound `[2H]C1([2H])Oc2ccc(Nc3ccc4cccc(Cl)c4n3)cc2O1` [Compound 11, N-(Benzo[d][1,3]dioxol-5-yl-2,2-d2)-8-chloroquinolin-2-amine], the fold induction at 1 µM was 2.4. `CC1(C)Oc2ccc(Nc3ccc4cccc(Cl)c4n3)cc2O1` [Compound 12, 8-Chloro-N-(2,2-dimethylbenzo[d][1,3]dioxol-5-yl)quinolin-2-amine] came in with a fold induction at 1 µM of 1.8. As to `CC1(C)Cc2cc(Nc3ccc4cccc(Cl)c4n3)ccc2O1` [Compound 13, 8-Chloro-N-(2,2-dimethyl-2,3-dihydrobenzofuran-5-yl)quinolin-2-amine], the fold induction at 1 µM came to 2.8.

Regarding `FC1(F)Oc2ccc(Nc3ccc4c5c(cc(Cl)c4n3)CCC5)cc2O1` [Compound 14, 5-Chloro-N-(2,2-difluorobenzo[d][1,3]dioxol-5-yl)-8,9-dihydro-7H-cyclopenta[f]quinolin-3-amine], the fold induction at 1 µM worked out at 1.5.

`Cc1ccc2ccc(Nc3ccc4c(c3)OC(F)(F)O4)nc2c1Cl` [Compound 15, 8-Chloro-N-(2,2-difluorobenzo[d][1,3]dioxol-5-yl)-7-methylquinolin-2-amine] registered a fold induction at 1 µM of 5.7. The compound `COc1ccc2ccc(Nc3ccc4c(c3)OC(F)(F)O4)nc2c1Cl` [Compound 16, 8-Chloro-N-(2,2-difluorobenzo[d][1,3]dioxol-5-yl)-7-methoxyquinolin-2-amine] had a fold induction at 1 µM of 3.9. The value for `FC1(F)Oc2ccc(Nc3ccc4ccc(Cl)c(Cl)c4n3)cc2O1` [Compound 17, 7,8-Dichloro-N-(2,2-difluorobenzo[d][1,3]dioxol-5-yl)quinolin-2-amine] was 5.9. `Cc1cc(Cl)c2nc(Nc3ccc4c(c3)OC(F)(F)O4)ccc2c1` [Compound 18, 8-Chloro-N-(2,2-difluorobenzo[d][1,3]dioxol-5-yl)-6-methylquinolin-2-amine] displayed a fold induction at 1 µM of 2.7. `FC1(F)Oc2ccc(Nc3ccc4cc(Cl)cc(Cl)c4n3)cc2O1` [Compound 20, 6,8-Dichloro-N-(2,2-difluorobenzo[d][1,3]dioxol-5-yl)quinolin-2-amine] came in with a fold induction at 1 µM of 5.

`O=C(O)[C@H]1O[C@@H](N(c2ccc3c(c2)OCO3)c2ccc3cccc(Cl)c3n2)[C@H](O)[C@@H](O)[C@@H]1O` [Compound 21, (2S,3S,4S,5R,6R)-6-(Benzo[d][1,3]dioxol-5-yl(8-chloroquinolin-2-yl)amino)-3,4,5-trihydroxytetrahydro-2H-pyran-2-carboxylic acid]: the fold induction at 1 µM came out at 1.9.

`O=C(O)[C@H]1O[C@@H](N(c2ccc3c(c2)OCCO3)c2ccc3cccc(Cl)c3n2)[C@H](O)[C@@H](O)[C@@H]1O` [Compound 22, (2S,3S,4S,5R,6R)-6-((8-Chloroquinolin-2-yl)(2,3-dihydrobenzo[b][1,4]dioxin-6-yl)amino)-3,4,5-trihydroxytetrahydro-2H-pyran-2-carboxylic acid]: the fold induction at 1 µM was 1.7. For `Cc1ccc(Cl)c2nc(Nc3ccc4c(c3)OC(F)(F)O4)ccc12` [Compound 23, 8-Chloro-N-(2,2-difluorobenzo[d][1,3]dioxol-5-yl)-5-methylquinolin-2-amine], the fold induction at 1 µM stood at 2.3.

In turn, `COc1ccc(Cl)c2nc(Nc3ccc4c(c3)OC(F)(F)O4)ccc12` [Compound 24, 8-Chloro-N-(2,2-difluorobenzo[d][1,3]dioxol-5-yl)-5-methoxyquinolin-2-amine] registered a fold induction at 1 µM of 3.

The compound `FC1(F)Oc2ccc(Nc3ccc4c(Cl)ccc(Cl)c4n3)cc2O1` [Compound 25, 5,8-Dichloro-N-(2,2-difluorobenzo[d][1,3]dioxol-5-yl)quinolin-2-amine] registered a fold induction at 1 µM of 6.7. As to `N#Cc1cc(Cl)c2nc(Nc3ccc4c(c3)OC(F)(F)O4)ccc2c1` [Compound 26, 8-Chloro-2-((2,2-difluorobenzo[d][1,3]dioxol-5-yl)amino)quinoline-6-carbonitrile], the fold induction at 1 µM was determined as 2.4.
